From ChEMBL document CHEMBL1150539, “A novel non nucleoside compound with high in vitro anti-HIV-1 activity. Absolute stereochemistry determination” (Bioorg Med Chem Lett, 1995)
Where “and” joins values, the source holds several entries; their conditions need not be identical. Identical values can stand only once.

Legend:
Format in all cases: functional, cell-based, Homo sapiens
CEM-SS [1] = experiment: Effective concentration required for 50% inhibition of viral replication by syncytium-forming assay carried out in CEM-SS cells
CEM-SS [2] = experiment: Compound was evaluated for inhibitory activity against cell growth
CEM-SS [3] = experiment: Effective concentration required for 50% inhibition of viral replication by XTT cytoprotection assay carried out in CEM-SS cells

`CC1(C)CCC[C@]2(C)[C@@H](c3ccoc3)C(=O)[C@@H]3O[C@]312` was tested, and the EC50 (CEM-SS [1]; Homo sapiens, CEM-SS) was 15.4 µM, the IC50 (CEM-SS [2]; cem-ss) was 48.3 µM and 154 µM and the EC50 (CEM-SS [3]; Homo sapiens, CEM-SS) was 42.1 µM.
With `CC1(C)CCC[C@@]2(C)[C@H](c3ccoc3)C(=O)[C@H]3O[C@@]312` the EC50 (CEM-SS [1]; cem-ss) was 0.6 µM, the IC50 (CEM-SS [2]; cem-ss) was 42.1 µM and 135 µM and the EC50 (CEM-SS [3]; cem-ss) was 0.8 µM.
`CC1(C)CCC[C@@]2(C)[C@H](c3ccoc3)C(=O)[C@H]3O[C@@]312` (racemic) was tested, and the EC50 (CEM-SS [1]; cem-ss) was 1.7 µM, the IC50 (CEM-SS [2]; cem-ss) was 45.7 µM and 53.8 µM and the EC50 (CEM-SS [3]; Homo sapiens, CEM-SS) was 1.3 µM.
Work on `Cc1cn([C@H]2C[C@H](N=[N+]=[N-])[C@@H](CO)O2)c(=O)[nH]c1=O` [ZIDOVUDINE] yielded an EC50 (CEM-SS [1]; Homo sapiens, CEM-SS) of 0.02 µM, an IC50 (CEM-SS [2]; Homo sapiens, CEM-SS) greater than 1890 µM and an EC50 (CEM-SS [3]; Homo sapiens, CEM-SS) of 0.3 µM.
